Converted amounts (≈) assume the structure as drawn.
How the values were obtained:
Assay type in all cases: functional
[1] = test system: Oryza sativa; test: Phytotoxicity in Oryza sativa (rice) assessed as assessed as growth rate at 10 g/acre by Oryza sativa (rice) injury assay
[2] = test system: Oryza sativa; test: Phytotoxicity in Oryza sativa (rice) assessed as assessed as growth rate at 30 g/acre by Oryza sativa (rice) injury assay
[3] = test system: Echinochloa crus-galli; test: Herbicidal activity against Echinochloa crus-galli (barnyard grass) assessed as growth rate at 3 g/acre
[4] = test system: Echinochloa crus-galli; test: Herbicidal activity against Echinochloa crus-galli (barnyard grass) assessed as growth rate at 30 g/acre
[5] = test system: Echinochloa crus-galli; test: Herbicidal activity against Echinochloa crus-galli (barnyard grass)
[6] = test system: Echinochloa crus-galli; test: Herbicidal activity against Echinochloa crus-galli (barnyard grass) assessed as growth rate at 1 g/acre

For `CC[C@H]1O[C@@H]2c3ccccc3CO[C@@H]2[C@H]1OC(C)c1ccccc1` (stereo not given in full), the Activity [1] was 91%, the Activity [2] was 91% and the Activity [3] was 41%. For the same compound, the Activity [4] was 0% and the MIC [5] was 3 µg/mL (≈ 9.25 µM).
For `CC[C@H]1O[C@@H]2c3ccccc3CO[C@@H]2[C@H]1OCc1cccc2ccccc12`, the Activity [1] was 91%, the Activity [2] was 91% and the Activity [6] was 91%. For the same compound, the Activity [3] was 91%, the Activity [4] was 91% and the MIC [5] was 10 µg/mL (≈ 27.7 µM).
In the case of `CC[C@H]1O[C@@H]2c3ccccc3CO[C@@H]2[C@H]1OC(=O)c1ccccc1`, the Activity [1] is reported as 91%, the Activity [2] is reported as 91% and the Activity [3] is reported as 91%. It also gave an Activity [4] of 6% and an MIC [5] of 3.3 µg/mL (≈ 10.2 µM).
For `CC[C@H]1O[C@@H]2c3ccccc3CO[C@@H]2[C@H]1OCc1ccccc1C(F)(F)F`, the Activity [1] was 91%, the Activity [2] was 91% and the Activity [6] was 91%. It also gave an Activity [3] of 71%, an Activity [4] of 0% and an MIC [5] of 0.4 µg/mL (≈ 1.06 µM).
In the case of `CC[C@H]1O[C@@H]2c3ccccc3CO[C@@H]2[C@H]1OCc1ccccc1`, the Activity [1] is reported as 11%, the Activity [2] is reported as 0% and the Activity [6] is reported as 11%. It also gave an Activity [3] of 6%, an Activity [4] of 0% and an MIC [5] of 0.4 µg/mL (≈ 1.29 µM).
Work on `CC[C@H]1O[C@@H]2c3ccccc3[C@@H](C)O[C@@H]2[C@H]1OCc1ccccc1F` yielded an Activity [1] of 91%, an Activity [2] of 0% and an Activity [6] of 11%. It also gave an Activity [3] of 6%, an Activity [4] of 0% and an MIC [5] of 0.7 µg/mL (≈ 2.04 µM).
With `CC[C@H]1O[C@@H]2c3ccccc3CO[C@@H]2[C@H]1OCc1cccs1` the Activity [1] was 91%, the Activity [2] was 91% and the Activity [6] was 91%. It also gave an Activity [3] of 11%, an Activity [4] of 0% and an MIC [5] of 0.8 µg/mL (≈ 2.53 µM).
With `CC[C@H]1O[C@@H]2c3ccccc3C(=O)O[C@@H]2[C@H]1OCc1ccccc1C` the Activity [1] was 91%, the Activity [2] was 91% and the Activity [4] was 11%. For the same compound, the MIC [5] was 3 µg/mL (≈ 8.87 µM).
`CC[C@H]1O[C@@H]2c3ccccc3CO[C@@H]2[C@H]1OCC1CCCCC1` showed an Activity [1] of 91%, an Activity [2] of 91% and an Activity [3] of 91%. For the same compound, the Activity [4] was 11% and the MIC [5] was 10 µg/mL (≈ 31.6 µM).
In the case of `CC[C@H]1O[C@@H]2c3ccccc3CO[C@@H]2[C@H]1OCc1ccccc1C`, the Activity [1] is reported as 11%, the Activity [2] is reported as 0% and the Activity [6] is reported as 11%. The Activity [3] was 0%, the Activity [4] was 0% and the MIC [5] was 0.4 µg/mL (≈ 1.23 µM).
In the case of `CC[C@H]1O[C@@H]2c3ccccc3CO[C@@H]2[C@H]1OCc1ccc(F)cc1`, the Activity [1] is reported as 91%, the Activity [2] is reported as 71% and the Activity [6] is reported as 11%. The Activity [3] was 0%, the Activity [4] was 0% and the MIC [5] was 1 µg/mL (≈ 3.05 µM).
`CC[C@H]1O[C@@H]2c3sccc3COC2[C@H]1OCc1ccccc1C` (single isomer, unassigned) showed an Activity [1] of 91%, an Activity [2] of 91% and an Activity [6] of 6%. It also gave an Activity [3] of 0%, an Activity [4] of 0% and an MIC [5] of 0.1 µg/mL (≈ 0.303 µM).
Compound `CC[C@H]1O[C@@H]2c3ccccc3C(C)O[C@@H]2[C@H]1OCc1ccccc1C` (stereo not given in full) has an Activity [1] of 11%, an Activity [2] of 11% and an Activity [6] of 6%. For the same compound, the Activity [3] was 0%, the Activity [4] was 0% and the MIC [5] was 0.2 µg/mL (≈ 0.591 µM).
Compound `CC[C@H]1O[C@@H]2c3ccccc3CO[C@@H]2[C@H]1O[Si](C)(C)C(C)(C)C` has an Activity [1] of 91%, an Activity [2] of 91% and an Activity [6] of 91%. It also gave an Activity [3] of 91%, an Activity [4] of 91% and an MIC [5] of over 100 µg/mL.
`CC[C@H]1O[C@@H]2c3ccsc3CO[C@@H]2[C@H]1OCc1ccccc1C` showed an Activity [1] of 91%, an Activity [2] of 91% and an Activity [3] of 11%. The Activity [4] was 0% and the MIC [5] was 0.7 µg/mL (≈ 2.12 µM).
`CC[C@H]1O[C@@H]2c3ccccc3CO[C@@H]2[C@H]1OCc1ccccc1Cl` showed an Activity [1] of 91%, an Activity [2] of 91% and an Activity [3] of 6%. For the same compound, the Activity [4] was 0% and the MIC [5] was 0.2 µg/mL (≈ 0.58 µM).
For `CC[C@H]1O[C@@H]2c3ccsc3CO[C@@H]2[C@H]1OCc1ccccc1F`, the Activity [1] was 91%, the Activity [2] was 91% and the Activity [6] was 6%. It also gave an Activity [3] of 0%, an Activity [4] of 0% and an MIC [5] of 0.3 µg/mL (≈ 0.897 µM).
In the case of `CC[C@H]1O[C@@H]2c3ccccc3CO[C@@H]2[C@H]1OC(C)=O`, the Activity [1] is reported as 91%, the Activity [2] is reported as 91% and the Activity [6] is reported as 91%. It also gave an Activity [3] of 91%, an Activity [4] of 91% and an MIC [5] of 80 µg/mL (≈ 305 µM).
Work on `CC[C@H]1O[C@@H]2c3ccccc3CO[C@@H]2[C@H]1OCc1ccccc1F` yielded an Activity [1] of 71%, an Activity [2] of 11% and an Activity [6] of 11%. For the same compound, the Activity [3] was 6%, the Activity [4] was 0% and the MIC [5] was 0.2 µg/mL (≈ 0.609 µM).
With `CC[C@H]1O[C@@H]2c3ccccc3CO[C@@H]2[C@H]1OCc1ccc2ccccc2c1` the Activity [1] was 91%, the Activity [2] was 91% and the Activity [6] was 91%. For the same compound, the Activity [3] was 91%, the Activity [4] was 91% and the MIC [5] was over 10 µg/mL.
Compound `CC[C@H]1O[C@@H]2c3occc3CO[C@@H]2[C@H]1OCc1ccccc1C` has an Activity [1] of 91%, an Activity [2] of 71% and an Activity [6] of 91%. For the same compound, the Activity [3] was 41%, the Activity [4] was 6% and the MIC [5] was 0.2 µg/mL (≈ 0.636 µM).
`CC[C@@H]1O[C@@H]2[C@@H](OCc3ccccc3F)[C@@H](CC)O[C@@H]2c2ccccc21` was tested, and the Activity [2] was 0%, the Activity [6] was 91% and the Activity [3] was 11%. For the same compound, the Activity [4] was 0% and the MIC [5] was 0.4 µg/mL (≈ 1.12 µM).
In the case of `CC[C@H]1O[C@@H]2c3ccccc3CO[C@@H]2[C@H]1OCc1cccc(F)c1`, the Activity [1] is reported as 91%, the Activity [2] is reported as 91% and the Activity [6] is reported as 11%. The Activity [3] was 0%, the Activity [4] was 0% and the MIC [5] was 0.3 µg/mL (≈ 0.914 µM).
Work on `CC[C@H]1O[C@@H]2c3ccccc3CO[C@@H]2[C@H]1OCc1ccccc1C#N` yielded an Activity [1] of 91%, an Activity [2] of 91% and an Activity [6] of 91%. The Activity [3] was 91%, the Activity [4] was 0% and the MIC [5] was 3.2 µg/mL (≈ 9.54 µM).
`CC[C@H]1O[C@@H]2c3sccc3CO[C@@H]2[C@H]1OCc1ccccc1F` was tested, and the Activity [1] was 6%, the Activity [2] was 0% and the Activity [6] was 6%. For the same compound, the Activity [3] was 0%, the Activity [4] was 0% and the MIC [5] was 0.1 µg/mL (≈ 0.299 µM).
In the case of `CC[C@H]1O[C@@H]2c3ccccc3CO[C@@H]2[C@H]1OCc1ccsc1`, the Activity [1] is reported as 91%, the Activity [2] is reported as 91% and the Activity [6] is reported as 91%. It also gave an Activity [3] of 71%, an Activity [4] of 0% and an MIC [5] of 0.3 µg/mL (≈ 0.948 µM).
Compound `CC[C@H]1O[C@@H]2c3ccccc3[C@H](C)O[C@@H]2[C@H]1OCc1ccccc1F` has an Activity [1] of 11%, an Activity [2] of 0% and an Activity [6] of 0%. For the same compound, the Activity [3] was 0%, the Activity [4] was 0% and the MIC [5] was 0.2 µg/mL (≈ 0.584 µM).
In the case of `CC[C@H]1O[C@@H]2[C@@H](OCc3ccccc3F)[C@@H](CC)O[C@@H]2c2ccccc21`, the Activity [2] is reported as 71%, the Activity [6] is reported as 91% and the Activity [3] is reported as 91%. For the same compound, the Activity [4] was 0% and the MIC [5] was 0.8 µg/mL (≈ 2.24 µM).
`CC[C@H]1O[C@@H]2c3ccccc3C(C)(CBr)O[C@@H]2[C@H]1OCc1ccccc1F` (stereo not given in full) gave an Activity [1] of 91%, an Activity [2] of 91% and an Activity [3] of 71%. It also gave an Activity [4] of 0% and an MIC [5] of over 3 µg/mL.
`CCc1ccccc1CO[C@@H]1[C@H]2OCc3ccccc3[C@H]2O[C@@H]1CC` gave an Activity [1] of 91%, an Activity [2] of 91% and an Activity [3] of 11%. For the same compound, the Activity [4] was 0% and the MIC [5] was 0.6 µg/mL (≈ 1.77 µM).
Compound `Cc1ccccc1CO[C@H]1C[C@]2(C(C)C)CC[C@@]1(C)O2` (relative stereo) [REL-CINMETHYLIN] has an Activity [1] of 41%, an Activity [2] of 11% and an Activity [6] of 0%. It also gave an Activity [3] of 0%, an Activity [4] of 0% and an MIC [5] of 0.1 µg/mL (≈ 0.364 µM).
`CC[C@H]1O[C@@H]2c3ccccc3CO[C@@H]2[C@H]1O` gave an Activity [1] of 91%, an Activity [2] of 91% and an Activity [6] of 91%. For the same compound, the Activity [3] was 91% and the Activity [4] was 91%.
`CC[C@H]1O[C@@H]2c3ccccc3CO[C@@H]2[C@H]1OC1CCc2ccccc21` (stereo not given in full) was tested, and the Activity [1] was 91%, the Activity [2] was 91% and the Activity [3] was 41%. The Activity [4] was 0% and the MIC [5] was 0.3 µg/mL (≈ 0.892 µM).
In the case of `CC[C@H]1O[C@@H]2C[C@](C)(c3ccccc3)O[C@@H]2[C@H]1OCc1ccccc1F`, the Activity [1] is reported as 91%, the Activity [2] is reported as 6% and the Activity [3] is reported as 6%. The Activity [4] was 0% and the MIC [5] was 0.1 µg/mL (≈ 0.281 µM).

— ChEMBL document CHEMBL3046226, “Novel glycol benzyl ether herbicides: Herbicidal activity of 3,3a,5,9b-tetrahydro-2H-furo[3,2-c][2]benzopyran derivatives” (2006)
